This experiment has as its target G protein-coupled receptor 17 (GPR17) (Homo sapiens, UniProt Q13304).

In general, EC50 refers to the concentration that produces a half-maximal response.

Chain of G protein-coupled receptor 17 (GPR17) (Q13304 whole entry): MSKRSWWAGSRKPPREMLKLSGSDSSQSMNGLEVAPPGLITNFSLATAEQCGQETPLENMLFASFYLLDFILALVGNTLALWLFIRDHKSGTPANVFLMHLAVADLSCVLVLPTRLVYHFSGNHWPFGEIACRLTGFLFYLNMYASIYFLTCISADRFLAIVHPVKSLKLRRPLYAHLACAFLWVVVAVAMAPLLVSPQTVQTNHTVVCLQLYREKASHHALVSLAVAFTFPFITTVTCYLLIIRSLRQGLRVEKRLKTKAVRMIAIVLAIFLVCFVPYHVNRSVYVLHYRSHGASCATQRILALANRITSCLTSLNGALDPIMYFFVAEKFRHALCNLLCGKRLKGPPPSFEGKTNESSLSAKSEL

Consider `O=C(Nc1ccccc1)Oc1cc(OC(=O)Nc2ccccc2)c2c(c1)N(C(c1ccc(F)cc1)c1cccc(Cl)c1O)CC2` (stereo not shown) [CHBC, 1-((3-chloro-2-hydroxyphenyl)(4-fluorophenyl)methyl)indoline-4,6-diyl bis(phenylcarbamate)], for which the 50% effective concentration (EC50) was found to be 19.2 µM.

The values above are taken from publication PMC8389915, “Synthesis and Preclinical Validation of Novel Indole Derivatives as a GPR17 Agonist for Glioblastoma Treatment” (Journal of Medicinal Chemistry, 2021).
